This note sets out measurements from ChEMBL document CHEMBL1201862, “PubChem BioAssay data set” (2004).

One data set concerns the target T1, Protein RecA (Mycobacterium tuberculosis, UniProt P9WHJ3).
T1 sequence (P9WHJ3 whole entry): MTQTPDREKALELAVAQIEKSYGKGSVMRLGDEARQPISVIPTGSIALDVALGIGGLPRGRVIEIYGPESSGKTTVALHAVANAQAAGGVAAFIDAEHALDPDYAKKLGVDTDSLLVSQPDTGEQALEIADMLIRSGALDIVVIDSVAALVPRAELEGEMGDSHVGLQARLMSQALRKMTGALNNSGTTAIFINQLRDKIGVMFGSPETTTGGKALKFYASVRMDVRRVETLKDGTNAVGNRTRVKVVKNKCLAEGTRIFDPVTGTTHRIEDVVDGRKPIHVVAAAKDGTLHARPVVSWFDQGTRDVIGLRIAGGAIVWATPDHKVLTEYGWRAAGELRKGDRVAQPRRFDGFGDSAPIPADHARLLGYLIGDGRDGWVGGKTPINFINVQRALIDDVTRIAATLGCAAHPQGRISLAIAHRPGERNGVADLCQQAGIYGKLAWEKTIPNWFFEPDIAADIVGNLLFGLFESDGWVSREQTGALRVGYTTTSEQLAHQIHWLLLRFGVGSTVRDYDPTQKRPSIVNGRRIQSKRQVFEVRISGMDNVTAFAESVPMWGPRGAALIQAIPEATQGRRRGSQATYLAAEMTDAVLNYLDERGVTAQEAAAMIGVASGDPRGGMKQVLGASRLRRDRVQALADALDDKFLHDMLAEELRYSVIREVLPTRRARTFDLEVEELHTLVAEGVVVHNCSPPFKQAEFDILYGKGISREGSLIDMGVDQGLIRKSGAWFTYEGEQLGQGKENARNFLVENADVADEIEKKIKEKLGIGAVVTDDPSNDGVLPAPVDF
The experiment in a line: Fluorescence Cell-Free Homogeneous Dose Retest to Identify Inhibitors of RecA-Intein Splicing Activity. [Related pubchem assays (depositor defined):AID2097, AID2223, AID489010, AID492950]. It counts as functional.

Data set [1] concerns the target T2, Tyrosyl-DNA phosphodiesterase 2 (Homo sapiens, UniProt O95551).
T2 sequence (O95551 whole entry): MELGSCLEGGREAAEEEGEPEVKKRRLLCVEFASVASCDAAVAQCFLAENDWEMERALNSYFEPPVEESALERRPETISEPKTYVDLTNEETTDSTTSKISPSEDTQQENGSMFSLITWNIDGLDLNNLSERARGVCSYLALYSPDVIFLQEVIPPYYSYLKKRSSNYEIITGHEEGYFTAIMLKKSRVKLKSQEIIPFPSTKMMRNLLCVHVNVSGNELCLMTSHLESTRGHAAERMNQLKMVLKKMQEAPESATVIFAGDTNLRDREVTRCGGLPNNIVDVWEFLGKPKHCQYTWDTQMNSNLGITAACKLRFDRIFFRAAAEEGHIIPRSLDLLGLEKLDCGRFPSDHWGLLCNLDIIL
The experiment in a line: human TDP2 enzyme inhibitors, dose response, biochemical, epi absorbance, IC50 (AID 743297).

Data set [2] can be described thus: ARNT/TACC3 interaction disruptors, potency, confirmation, biochemical, AlphaScreen, cherry-picked samples (AID 651703).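 Note: His-tagged ARNT PAS-B domain paired with GST-TACC3 E629A dimer coactivator fragment; potency of inhibitors that break up the complex and lower AlphaScreen signal.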 It counts as functional, Homo sapiens.
Data set [3] has as its target T3, Sentrin-specific protease 8 (Homo sapiens, UniProt Q96LD8).
T3 sequence (Q96LD8 whole entry): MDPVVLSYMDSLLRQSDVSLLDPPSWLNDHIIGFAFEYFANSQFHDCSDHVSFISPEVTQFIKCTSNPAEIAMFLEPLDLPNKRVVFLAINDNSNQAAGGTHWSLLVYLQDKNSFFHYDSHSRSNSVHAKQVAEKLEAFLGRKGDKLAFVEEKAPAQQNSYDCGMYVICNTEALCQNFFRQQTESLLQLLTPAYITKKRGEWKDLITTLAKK
It counts as functional.

Data set [4] deals with T4, Replicative DNA helicase DnaB (Mycobacterium tuberculosis, UniProt P9WMR3).
T4 sequence (P9WMR3 whole entry): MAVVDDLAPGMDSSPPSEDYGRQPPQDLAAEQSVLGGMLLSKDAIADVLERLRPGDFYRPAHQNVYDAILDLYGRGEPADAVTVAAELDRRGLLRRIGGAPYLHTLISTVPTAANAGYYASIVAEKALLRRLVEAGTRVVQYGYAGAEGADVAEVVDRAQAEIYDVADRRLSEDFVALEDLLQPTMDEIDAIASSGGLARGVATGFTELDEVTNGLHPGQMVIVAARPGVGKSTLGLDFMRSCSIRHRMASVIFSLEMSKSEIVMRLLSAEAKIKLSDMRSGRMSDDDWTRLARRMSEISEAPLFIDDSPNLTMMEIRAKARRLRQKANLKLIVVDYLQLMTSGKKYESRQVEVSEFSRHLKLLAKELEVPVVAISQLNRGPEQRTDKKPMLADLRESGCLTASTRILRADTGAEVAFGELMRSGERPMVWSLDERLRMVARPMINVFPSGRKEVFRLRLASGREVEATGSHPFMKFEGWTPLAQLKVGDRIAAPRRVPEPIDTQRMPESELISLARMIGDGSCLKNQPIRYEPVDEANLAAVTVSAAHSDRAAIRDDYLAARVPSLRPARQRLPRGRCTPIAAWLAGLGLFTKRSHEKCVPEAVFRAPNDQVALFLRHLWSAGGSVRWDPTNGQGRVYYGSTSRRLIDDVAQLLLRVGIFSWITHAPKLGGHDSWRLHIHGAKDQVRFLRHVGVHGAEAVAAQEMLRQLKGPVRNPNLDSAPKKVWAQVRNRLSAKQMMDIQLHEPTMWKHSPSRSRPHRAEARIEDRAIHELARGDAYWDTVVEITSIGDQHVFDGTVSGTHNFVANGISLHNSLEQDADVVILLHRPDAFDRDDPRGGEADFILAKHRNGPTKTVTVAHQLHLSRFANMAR
The experiment in a line: DnaB intein splicing inhibitors, dose response, biochemical, cell-free fluorescence (AID 449749). In kind it is functional.

Data set [5] addresses T3, Sentrin-specific protease 8. It counts as functional. This is another data set of the same source.
The target in data set [6] is T5, Zinc finger protein mex-5 (Caenorhabditis elegans, UniProt Q9XUB2).
T5 sequence (Q9XUB2 whole entry): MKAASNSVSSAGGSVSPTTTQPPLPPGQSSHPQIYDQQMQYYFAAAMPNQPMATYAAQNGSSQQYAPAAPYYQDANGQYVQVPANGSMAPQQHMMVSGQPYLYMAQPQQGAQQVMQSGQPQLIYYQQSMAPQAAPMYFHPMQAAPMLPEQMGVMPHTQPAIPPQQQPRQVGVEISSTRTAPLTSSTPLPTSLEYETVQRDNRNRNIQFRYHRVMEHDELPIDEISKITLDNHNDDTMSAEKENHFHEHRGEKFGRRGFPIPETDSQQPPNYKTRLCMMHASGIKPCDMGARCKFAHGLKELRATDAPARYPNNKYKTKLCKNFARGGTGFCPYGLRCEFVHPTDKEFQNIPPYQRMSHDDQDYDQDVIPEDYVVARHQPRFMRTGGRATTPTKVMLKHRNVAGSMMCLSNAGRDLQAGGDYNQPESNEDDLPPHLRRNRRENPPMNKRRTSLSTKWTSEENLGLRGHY
Description: MEX-5/TCR-2 RNA interaction inhibitors, dose response, biochemical, C. elegans, fluorescence polarization (AID 1960). For orientation: Fluorescence polarisation rises when a labelled molecule tumbles more slowly, as on binding a larger partner.

The target of data set [7] is T6, RNA-binding protein pos-1 (Caenorhabditis elegans, UniProt G5EF15).
T6 sequence (G5EF15 whole entry): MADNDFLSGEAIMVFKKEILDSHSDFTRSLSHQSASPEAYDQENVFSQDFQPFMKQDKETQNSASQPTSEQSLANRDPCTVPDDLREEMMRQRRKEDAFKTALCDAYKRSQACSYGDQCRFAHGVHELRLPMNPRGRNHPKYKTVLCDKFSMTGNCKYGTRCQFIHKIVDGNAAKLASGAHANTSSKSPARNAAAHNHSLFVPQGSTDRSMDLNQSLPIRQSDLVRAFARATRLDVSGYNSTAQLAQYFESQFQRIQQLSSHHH
The experiment in a line: inhibitors of POS-1/mex-3 RNA binding, dose response, biochemical, fluorescence polarization (AID 1964).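 Note: purified POS-1 fused to maltose binding protein made in E. coli; potency of compounds blocking POS-1 binding to fluorescent RNA.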

Data set [8] in a line: HEK293T cell cytotoxicity, dose response, cytotoxicity control for HIV Vif inhibitor project, cherry-picks (AID 652208). It counts as functional, cell-based.
Another data set has as its system Streptococcus. The experiment in a line: Group A Streptococcus viability loss, dose response, counter-screen for streptokinase expression inhibitor project, luminescence, BacTiterGlo (AID 1915).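 Note: potency for reduction of bacterial viability or growth.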 In kind it is functional, organism-based. For orientation: A counterscreen serves to expose hits that act by an unwanted route or on another target.
Data set [9] concerns Streptococcus sp. 'group A'. Description: growth inhibition of control SK(-) GAS strain, dose response, counter-screen for streptokinase expression inhibitor project, luminescence, kanamycin, BacTiterGlo, confirmation (AID 1900). In kind it is functional, organism-based.
Data set [10] is described as follows: Luminescence Cell-Based Dose Retest to Confirm Inhibitors of Cancer Stem Cells. [Related pubchem assays (depositor defined):AID2717, AID2721]. It counts as functional. The conditions noted are these: Homo sapiens.
Data set [11] deals with T7, Corticotropin-releasing factor receptor 2/Corticotropin-releasing factor-binding protein (Homo sapiens, UniProt P24387+Q13324).
T7 sequence (Q13324 whole entry): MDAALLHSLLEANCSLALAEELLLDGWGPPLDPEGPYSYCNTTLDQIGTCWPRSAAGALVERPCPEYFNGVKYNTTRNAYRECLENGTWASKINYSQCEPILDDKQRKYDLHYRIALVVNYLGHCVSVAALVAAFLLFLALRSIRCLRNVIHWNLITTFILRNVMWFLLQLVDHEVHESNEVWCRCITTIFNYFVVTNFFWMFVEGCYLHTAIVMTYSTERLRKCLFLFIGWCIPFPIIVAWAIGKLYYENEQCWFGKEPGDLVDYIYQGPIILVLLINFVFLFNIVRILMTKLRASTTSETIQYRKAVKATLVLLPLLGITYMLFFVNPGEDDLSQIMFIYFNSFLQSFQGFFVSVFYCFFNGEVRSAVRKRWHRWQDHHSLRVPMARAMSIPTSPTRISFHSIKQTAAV
T7 sequence (P24387 whole entry): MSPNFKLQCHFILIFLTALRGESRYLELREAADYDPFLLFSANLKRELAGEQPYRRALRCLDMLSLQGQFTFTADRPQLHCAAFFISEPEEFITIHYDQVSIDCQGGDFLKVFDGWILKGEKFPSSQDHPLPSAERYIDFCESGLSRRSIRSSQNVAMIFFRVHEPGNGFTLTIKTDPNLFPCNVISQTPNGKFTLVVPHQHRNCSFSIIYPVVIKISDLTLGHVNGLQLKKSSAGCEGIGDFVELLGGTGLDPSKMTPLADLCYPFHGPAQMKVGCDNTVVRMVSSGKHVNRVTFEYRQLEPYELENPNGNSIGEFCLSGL
The experiment in a line: activators of CRF receptor 2 with binding protein – uHTS hits, confirmation (AID 602473). The conditions noted are these: read-out: EC50_Mean. In kind it is functional.

Data set [12] can be described thus: inhibitors of clade B AD8 Env fusion, dose response, cell-based, cherry-pick (AID 652062).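 Note: luciferase signal from cell-cell fusion driven by HIV-1 clade B AD8 Env; potency is for inhibitors of fusion seen as a drop in luminescence.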 In kind it is functional.
The nature of data set [13]: off-target signal loss in HeLa-CEM21 co-culture – HeLa F-luc CTL cells, cherry-picked, counter-screen for HIV-1 Env fusion inhibitor project, dose response (AID 652040).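 Note: potency for signal decrease marking cytotoxic or nonspecific inhibition.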 In kind it is functional, cell-based.
For the next data set, the target named is Cytochrome P450 2C9 (Homo sapiens, UniProt P11712).
Cytochrome P450 2C9, sequence (P11712 whole entry): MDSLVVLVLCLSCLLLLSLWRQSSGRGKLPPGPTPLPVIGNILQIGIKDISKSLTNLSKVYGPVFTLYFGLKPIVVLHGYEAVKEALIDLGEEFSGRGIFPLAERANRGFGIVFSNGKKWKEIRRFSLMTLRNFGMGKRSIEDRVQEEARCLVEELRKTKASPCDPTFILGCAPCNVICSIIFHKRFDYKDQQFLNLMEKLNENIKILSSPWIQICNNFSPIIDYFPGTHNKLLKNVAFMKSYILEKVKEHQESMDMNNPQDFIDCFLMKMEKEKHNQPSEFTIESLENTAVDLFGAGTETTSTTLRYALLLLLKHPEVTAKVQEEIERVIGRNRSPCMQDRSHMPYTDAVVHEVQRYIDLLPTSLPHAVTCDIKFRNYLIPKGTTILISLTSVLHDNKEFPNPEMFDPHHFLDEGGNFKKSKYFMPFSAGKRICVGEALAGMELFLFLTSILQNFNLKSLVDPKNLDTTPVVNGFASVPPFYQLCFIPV
A further data set can be described thus: cells. It counts as functional, cell-based. Particulars: HEK-CNG.
Data set [14] addresses T7, Corticotropin-releasing factor receptor 2/Corticotropin-releasing factor-binding protein. The experiment in a line: Dose Response confirmation of uHTS hits for small molecule antagonists of the CRF-binding protein and CRF-R2 receptor complex. In kind it is functional. The conditions noted are these: read-out: IC50_Mean.
The target in a further data set is Galanin receptor type 3 (Homo sapiens, UniProt O60755). Description: Fluorescence-based cell-based primary high throughput dose response assay to identify antagonists of the Galanin Receptor 3 (GalR3). It counts as functional.
Galanin receptor type 3, sequence (O60755 whole entry): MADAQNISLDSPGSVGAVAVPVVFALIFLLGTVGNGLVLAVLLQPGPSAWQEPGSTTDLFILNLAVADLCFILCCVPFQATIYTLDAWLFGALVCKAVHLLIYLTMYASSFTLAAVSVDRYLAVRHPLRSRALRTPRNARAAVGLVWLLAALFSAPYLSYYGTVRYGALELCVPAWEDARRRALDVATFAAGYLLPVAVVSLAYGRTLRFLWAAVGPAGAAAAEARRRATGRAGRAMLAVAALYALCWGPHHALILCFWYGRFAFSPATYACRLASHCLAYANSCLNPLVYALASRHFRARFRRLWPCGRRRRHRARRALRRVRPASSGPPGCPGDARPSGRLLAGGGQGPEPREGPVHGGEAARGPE
Data set [15] is described as follows: NIH/3T3 fibroblast cytotoxicity, dose response, cytotoxicity control for T. cruzi growth inhibitor project, cell-based, cherry-pick samples, set 2 (AID 651817). In kind it is functional. Particulars: NIH3T3.

Activity calls are given as the source filed them. A value given as a limit tells only on which side of the number the result lay.

One may read the AC50 as the concentration at which the activity in the assay is half-maximal. Regarding `Cc1n[nH]c(O)c1C(c1ccc(-c2ccccc2C(=O)O)o1)c1c(C)n[nH]c1O`, the EC50 is 0.256 µM (active) at Protein RecA, 37 µM (active) in data set [6] and 148 µM (active) in data set [7]. For the same compound, the IC50 in data set [1] was > 128 µM (inactive); in data set [3], 16.4 µM (active); in data set [5], > 100 µM (inactive). Besides, the AC50 in data set [2] was 82.1 µM (active); in [4] it was 0.335 µM (active).

On to `COc1cc(NC(=O)c2ccc(-c3csc(C)n3)cc2)c(OC)cc1Cl`, for which the AC50 in data set [8] was 38.2 µM (active).

Consider `Cc1nn2c(COc3ccc(NC(=O)c4ccccc4Cl)cc3)nnc2c2ccccc12`, for which the values for the AC50 in [8] and in data set [10] were > 52 µM (inactive) and 2.59 µM (active), respectively. Further, the EC50 was 1.36 µM (active) with Streptococcus and 2.06 µM (active) in [9].

Consider `Cc1nn(C)c(Cl)c1NC(=O)OCc1ccc(Cl)cc1Cl`, for which the results for the EC50 (in data set [11]; in the data set “cells”) were > 53 µM (inactive) and > 29.9 µM (inactive), respectively. For the same compound, the results for the AC50 (in [12]; in data set [13]; at Cytochrome P450 2C9) were 22.5 µM (active), > 70 µM (inactive) and “inconclusive”, respectively. Besides, the figures for the IC50 (in data set [14]; at Galanin receptor type 3) were > 47.1 µM (inactive) and 2.13 µM (active), respectively.

For the compound `C[C@H](CO)N1C[C@H](C)[C@H](CN(C)Cc2ccc(Cl)c(Cl)c2)Oc2c(NC(=O)c3ccncc3)cccc2C1=O`, the AC50 in data set [15] is 39 µM (inactive).

For the compound `COc1ccc(CN(C)C[C@H]2Oc3c(NC(=O)Nc4ccc(C(F)(F)F)cc4)cccc3C(=O)N([C@@H](C)CO)C[C@@H]2C)cc1`, the AC50 in data set [15] is 14.4 µM (active).
